Where a name gives a salt, the structure may show the parent alone.
Legend:
solubility in saline = assay type: physicochemical
[1] = tested on: spontaneous recurrent seizures; assay: spontaneous recurrent seizures (SRS) model of epilepsy; assay type: in vivo, Sprague-Dawley rat; settings: for effective in decreasing seizures by at least 50%: administered at Time 1 (Day 1, after status epilepticus, before onset of SRS); for effective in decreasing seizures by at least 50% / effective in decreasing seizures (seizure frequency) by at least 50%: 20 mg/kg/day i.v. for 10 days; for effective in decreasing seizures (seizure frequency) by at least 50%: administered at Time 2 (Day 30, established SRS)
Procedure: The “spontaneous recurrent seizures” (SRS) model of epilepsy was used to evaluate candidate compounds in a model for Phase 1 epileptogenesis (see, e.g., Mello, E. et al., Epilepsia (1993) 34:985; Cavalheiro, J. et al., Epilepsia (1991) 32:778). In the SRS model, an adult male Sprague-Dawley rat (c. 260 g) is given pilocarpine by injection (380 mg/kg i.p.). Within 25 minutes, the animal enters status epilepticus, which typically lasts for 15-20 hours (although about 10% of animals die at this stage). The rat is allowed to spontaneously recover and is given food and water ad lib. and maintained on a 12 hour/12 hour light/dusk cycle. Rats are usually studied in groups of four. Beginning on about day 13-15, the rats develop spontaneous recurrent seizures, which occur at the rate of about 4-5 per week. The rats are videotaped 24 hours per day, and the videotapes are reviewed for behavioral seizures (including head nodding, forelimb clonus, and rearing), which are counted. The animals are watched for three months, permitting evaluation of a sufficient number of seizures. […] Administration of the candidate compound at Time 1 permits evaluation for anti-epileptogenic properties (ability to prevent the onset of seizures); administration of compounds at Time 2 permits evaluation of drugs as anti-ictogenics with the ability to suppress established seizures.
As a reference, the standard anticonvulsant phenytoin was administered (20 mg/kg/day i.v. for 10 day) at either Time 1 or Time 2.

mice = assay: testing of dioxapiperazine compounds in mice (Example 7); assay type: in vivo; set-up: key to Activity: 300 mg/kg / Activity: 100 mg/kg / Activity: 30 mg/kg: 0 (inactive); 1: Activity on scale of 0 (inactive) to 4.; 2: Activity on scale of 0 (inactive) to 4.; 3: Activity on scale of 0 (inactive) to 4.; Activity on scale of 0 (inactive) to 4; settings: for Activity: 100 mg/kg / Activity: 300 mg/kg / Activity: 30 mg/kg: mice, 30 minutes and four hours after administration; for anti-convulsive activity: animal model system of Table 4, in words
Procedure: (§1) Selected compounds were dissolved in 0.9% NaCl or suspended in a mixture of 30% polyethylene glycol 400 and 70% water, and tested in an animal model. Briefly, the compounds were administered intraperitoneally or or orally to carsworth Farms #1 mice (in a volume of 0.01 ml/g of body weight) or Sprague-Dawley rats (in a volume of 0.004 ml/g body weight). Times on peak effect and peak neurologic deficit were determined before the anticonvulsant tests were administered.
(§2) The maximal electroshock seizure test (MES), corneal electrodes primed with a drop of electrolyte solution (0.9% NaCl) were applied to the eyes of the animal and an electrical stimulus (50 mA for mice, 150 mA for rats; 60 Hz) was delivered for 0.2 second at the time of the peak effect of the test compound. The animals were restrained by hand and released at the moment of stimulation in order to permit observation of the seizure.
(§3) In the subcutaneous pentylenetetrazol threshold test (scMet), the convulsant dose (CD97) of pentylenetetrazol (85 mg/kg in rats) was injected at the time of peak effect of the test compound. The animals were isolated and observed for 30 minutes to see whether seizures occurred.
(§4) Acute anti-convulsant drug-induced toxicity in lab animals is usually characterized by some type of neurologic abnormality. In mice, these abnormalities can be detected by the rotorod ataxia test, which is somewhat less useful in rats. In the rotorod ataxia test, neurologic deficit is indicated by the inability of the animal to maintain equilibrium for at least one minute on a knurled rod rotating at 6 rpm. […] Inability to return the leg to normal position indicates a neurologi deficit.
Testing of the compounds was performed in 12 mice at doses of 30, 100, 300 mg/kg (4 mice each) 30 minutes and four hours after the test compounds was administered.

[2] = tested on: MES-induced seizure; pentylenetetrazol induced seizure; assay: biological activity per Example 6 (MES, scMet anticonvulsant tests); assay type: in vivo, carsworth Farms #1 mice or Sprague-Dawley rats; settings: tested per Example 6
Procedure: as §1, §2, §3, §4

Compound | Activity: 100 mg/kg (mice) | Activity: 300 mg/kg (mice) | further results
Cc1ccc(C(CC(=O)O)NCl)cc1 (stereo not shown) |  |  | solubility (solubility in saline): 7.2-7.1 (M, 4H)4.17-4.09(t, 1H, 7.4 Hz)2.39-2.46 (m, 2H)solubility: ~10 mg/mlsaline
O=C(O)CC(NCl)c1ccc(Cl)cc1 (stereo not shown) |  |  | solubility (solubility in saline): 7.3-7.17 (s, 4H)4.07-4.17 (t, 7H, 7.2 Hz)2.45-2.55 (dt, 4.5 Hz, 3.5Hz)solubility: ~10 mg/mlsaline
NC(CC(=O)O)c1ccccc1 (stereo not drawn) [Compound B5P91, β-Phenyl-β-alanine] |  |  | solubility (solubility in saline): 7.35-7.2 (s, 5H)4.45 (t, 1H, 7.3 Hz)2.8-2.1 (m, 2H)solubility: ~10 mg/mlsaline
CC(C)(C)C1CCC(C(CN)C(=O)O)CC1.Cl (stereo not drawn) [Compound B5P127, α-(4-tert-Butylcyclohexyl)-β-alanine Hydrochloride Salt] |  |  | effective in decreasing seizures by at least 50% [1]: 75%; effective in decreasing seizures (seizure frequency) by at least 50% [1]: 50%
CC1NC(=O)C(c2ccc(O)cc2)NC1=O [c/D-(p-OH)-Peg-L-Ala] | 0 | 0 | 
NCCCCC1NC(=O)C(c2ccc(O)cc2)NC1=O [c/D-(p-OH)-Peg-L-Lys] | 0 | 0 | 
NCCCCC1NC(=O)C(c2ccccc2)NC1=O [c/D-Peg-D-Lys] | 0 | 0 | 
CSCCC1NC(=O)C(c2ccccc2)NC1=O [c/D-Peg-D-Met] | 0 | 0 | 
NCCC[C@H]1NC(=O)[C@@H](c2ccccc2)NC1=O [c/D-Peg-D-Orn] | 0 | 0 | 
O=C1CNC(=O)[C@@H](c2ccccc2)N1 [c/D-Peg-Gly] | 1 | 2 | Activity: 30 mg/kg (mice): 0
C[C@@H]1NC(=O)[C@@H](c2ccccc2)NC1=O [c/D-Peg-L-Ala, Cyclo-D-phenylglycine-L-alanine] | 3 | 4 | anti-convulsive activity (mice): strong anti-convulsive activity; Activity: 30 mg/kg (mice): 2
N=C(N)NCCC[C@@H]1NC(=O)[C@@H](c2ccccc2)NC1=O [c/D-Peg-L-Arg] | 0 | 0 | 
NCCCCC1NC(=O)C(c2ccccc2)NC1=O [c/D-Peg-L-Lys] | 0 | 1 | 
CSCCC1NC(=O)C(c2ccccc2)NC1=O [c/D-Peg-L-Met] | 0 | 1 | 
NCCCC1NC(=O)C(c2ccccc2)NC1=O [c/D-Peg-L-Ornithine (Orn)] | 0 | 0 | 
NCCC1NC(=O)C(c2ccccc2)NC1=O [c/D-Peg-L-diaminobutyric acid] | 0 | 0 | 
C[C@@H]1NC(=O)[C@H](c2ccccc2)NC1=O [c/L-Peg-L-Ala] | 0 | 0 | 
CC(C)CC1NC(=O)C(C)NC1=O [c/L-alanine-D-leucine] |  |  | anti-convulsive activity (mice): active
O=C1NC(=O)C(c2ccccc2)(c2ccccc2)N1 [phenytoin] |  |  | preventing the onset of seizures ([1]; administered at Time 1, 20 mg/kg/day i.v. for 10 day): ineffective; effective in decreasing seizures (seizure frequency) by at least 50% [1]: 75%
COc1cc(C)c(C(N)CC(=O)O)cc1C (stereo not drawn) [β-2,5-dimethyl-4-methoxyphenyl-β-alanine] |  |  | biological activity [2]: at least weak activity
NC(CC(=O)O)c1cccc(C(F)(F)F)c1F (stereo not drawn) [β-2-fluoro-3-(trifluoromethyl)phenyl-β-alanine] |  |  | biological activity [2]: moderate
COc1cccc(C(N)CC(=O)O)c1O (stereo not drawn) [β-2-hydroxy-3-methoxyphenyl-β-alanine] |  |  | biological activity [2]: at least weak activity
COc1ccc(C(N)CC(=O)O)cc1C (stereo not drawn) [β-3-methyl-4-methoxyphenyl-β-alanine] |  |  | biological activity [2]: slight
NCCC(=O)O [β-alanine] |  |  | effective in decreasing seizures by at least 50% [1]: 75%; effective in decreasing seizures (seizure frequency) by at least 50% [1]: 50%
NC(CC(=O)O)c1ccc(OC(F)(F)F)cc1 (stereo not drawn) [β-p-(trifluoromethoxy)phenyl-β-alanine] |  |  | biological activity [2]: at least weak activity
Cc1ccc(C(N)CC(=O)O)cc1 (stereo not drawn) [β-p-methylphenyl-β-alanine hydrochloride] |  |  | biological activity [2]: at least weak activity
cyclo-D-phenylglycyl-(S-Me)-L-cysteine [c/D-Peg-L-(S-methyl)-L-cysteine] | 3 | 4 | anti-convulsive activity (mice): strong anti-convulsive activity; Activity: 30 mg/kg (mice): 2

Source: US7268164B2, “Anti-epileptogenic agents” (Queens University at Kingston, priority 1997, dated 2007)
